The test addresses T1, recombinant mouse FAPα (rmFAPα) (Mus musculus, UniProt P97321).
T1 construct: purchased R&S system (so in the source)
T1 sequence (P97321 1-761): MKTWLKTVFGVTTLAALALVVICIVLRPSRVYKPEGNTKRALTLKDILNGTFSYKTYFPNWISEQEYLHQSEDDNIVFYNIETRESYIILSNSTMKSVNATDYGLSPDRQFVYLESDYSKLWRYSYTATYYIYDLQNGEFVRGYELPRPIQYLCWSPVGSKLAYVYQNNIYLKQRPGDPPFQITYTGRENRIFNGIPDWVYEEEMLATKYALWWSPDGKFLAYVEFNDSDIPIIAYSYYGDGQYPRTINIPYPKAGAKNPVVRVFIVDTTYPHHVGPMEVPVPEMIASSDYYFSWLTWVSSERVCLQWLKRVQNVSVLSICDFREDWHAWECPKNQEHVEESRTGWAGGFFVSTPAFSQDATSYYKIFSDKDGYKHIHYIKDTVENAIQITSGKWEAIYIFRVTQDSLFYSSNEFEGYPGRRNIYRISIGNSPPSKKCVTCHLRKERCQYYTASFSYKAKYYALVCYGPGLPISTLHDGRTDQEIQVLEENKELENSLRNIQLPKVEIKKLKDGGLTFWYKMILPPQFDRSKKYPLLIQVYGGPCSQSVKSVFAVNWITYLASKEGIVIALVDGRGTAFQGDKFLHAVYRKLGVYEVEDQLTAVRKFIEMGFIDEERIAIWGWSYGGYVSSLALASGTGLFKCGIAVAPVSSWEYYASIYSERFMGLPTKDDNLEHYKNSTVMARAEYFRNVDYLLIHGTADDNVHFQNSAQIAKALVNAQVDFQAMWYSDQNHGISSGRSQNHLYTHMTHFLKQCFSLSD
Description: FAPα enzymatic exopeptidase (dipeptidase) activity assay. Format: biochemical. The note with it: 1 μM test compound; Z-Gly-Pro-AMC substrate; read-out: rmFAPα (% exo inh @ 1 μM). As to the method: FAPα enzymatic exopeptidase (dipeptidase) activity assay. […] 7-Amino-4-Methylcoumarin (AMC) release was detected by measuring fluorescence at Ex/Em 380/460 nm using a Multifunction Microplate Reader (Synergy 4, Biotek). All measurements were carried out in duplicate. […] For the calculations, the average measurements from reactions containing only vehicle and substrate, without enzyme, were used as a blank and were subtracted from the rest of the measurements. Percent inhibition was calculated using the average measurements from reactions containing vehicle, enzyme, and substrate as the maximum of enzymatic activity. Measurements were performed as a single point.

A value given as a limit tells only on which side of the number the result lay.

On to `N#C[C@@H]1CC(F)(F)CN1C(=O)CNC(=O)c1c[nH]c(=O)c2ccccc12` [Example 1, (S)—N-(2-(2-cyano-4,4-difluoropyrrolidin-1-yl)-2-oxoethyl)-1-oxo-1,2-dihydroisoquinoline-4-carboxamide], for which the inhibition at 1 µM was greater than 50%.

The record behind these values is patent US11780821B2, “Inhibitors of fibroblast activation protein” (Praxis Biotech LLC, priority 2017, dated 2023).
